Measured values as given in article PMC8745263 (International Journal of Molecular Sciences, 2021).
“Also recorded” adds a separate entry of the source. Square brackets hold non-standard residues; d marks the D form. Peptide text beside a SMILES is read from it. Met(O) = CS(=O)CC[C@H](N)C(=O)O

Key:
[1] = biological target: T1, APEH partially purified from human blood cells (Homo sapiens, UniProt P13798); assay: Treatment of peptides with APEH and assessment of proteolysis by LC-MS; type: biochemical; settings: 10 nmol/200 μL peptide, APEH 0.7 μg, 37 °C, 48 h; for % intact peptide left after APEH exposure (percentage of the initial substrate) / % fragment cleaved on carboxy side of H59 (Ac-...HTH, lacking LVQQA), percentage of the initial substrate / % fragment cleaved on carboxy side of Q62 (Ac-...HTHLVQ, lacking QA), percentage of the initial substrate: Tris-HCl 25 mM pH 7.5, EIC peak areas, average of three independent experiments; for % Degradation (overall % of peptide degraded upon exposure to APEH): sum of fragment % of Table 2(a), Tris-HCl 25 mM pH 7.5, N.D. = not degraded
T1 construct: incubated with APEH partially purified from human blood cells; from tissue; host or cells: human red blood cells (erythrocyte hemolysate from donors' blood)
T1 sequence (P13798 1-732): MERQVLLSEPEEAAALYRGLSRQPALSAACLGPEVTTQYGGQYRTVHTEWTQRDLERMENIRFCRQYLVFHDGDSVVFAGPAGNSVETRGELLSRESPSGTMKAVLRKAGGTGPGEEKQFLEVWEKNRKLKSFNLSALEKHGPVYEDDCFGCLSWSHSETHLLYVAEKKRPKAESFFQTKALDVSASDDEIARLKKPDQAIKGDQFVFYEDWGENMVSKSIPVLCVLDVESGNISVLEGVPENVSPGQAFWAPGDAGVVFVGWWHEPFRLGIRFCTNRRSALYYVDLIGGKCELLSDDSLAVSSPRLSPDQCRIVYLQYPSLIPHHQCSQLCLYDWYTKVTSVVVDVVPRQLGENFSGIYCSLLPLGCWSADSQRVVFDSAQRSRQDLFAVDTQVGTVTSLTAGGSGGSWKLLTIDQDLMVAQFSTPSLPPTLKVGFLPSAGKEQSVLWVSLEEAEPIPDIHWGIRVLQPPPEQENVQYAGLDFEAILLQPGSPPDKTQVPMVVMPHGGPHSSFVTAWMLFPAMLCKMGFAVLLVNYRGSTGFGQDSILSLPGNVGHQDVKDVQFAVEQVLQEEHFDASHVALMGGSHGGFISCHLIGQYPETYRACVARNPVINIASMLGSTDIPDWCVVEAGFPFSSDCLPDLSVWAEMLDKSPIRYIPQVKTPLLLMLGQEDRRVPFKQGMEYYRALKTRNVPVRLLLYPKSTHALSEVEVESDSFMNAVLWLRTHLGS
Method: In order to identify the potential cleavage sites of APEH on the oxidized GDF11[48-64], the peptide was incubated alone or in combination with the enzyme and the corresponding reaction mixtures were analyzed by LC-MS. The same experiments were performed using the non-oxidized analogues as control.
Blood samples were taken from donors using syringes with heparin. In accordance with ethical principles stated in the Declaration of Helsinki, as well as with approved national and international guidelines for human research, a written informed consent was obtained from participants. The erythrocytes were separated from the plasma by centrifugation at 1800× g for 5 min at 4 °C and washed twice with an isotonic solution (10 mM Tris-HCl pH 7.6, […]; 4 °C). Lysis of erythrocytes was carried out by incubation in hypotonic solution (25 mM Tris/HCl, pH 7.5) for 30 min on ice. The hemolysate was obtained by centrifugation of the lysate at 9200× g for 40 min at 4 °C. Then, the ‘soluble fraction’ was loaded onto a DEAE Sepharose Fast Flow column, connected to an AKTA FPLC system (Amersham Biosciences, Amersham, UK), previously equilibrated in 25 mM Tris-HCl (pH 7.5) (buffer A). The bound proteins were eluted using a linear ionic strength gradient (0–100%) of 1 M NaCl in buffer A at a flow rate of 1 mL min^−1. The active fractions were collected, pooled, dialyzed against 25 mM Tris-HCl pH 7.5 and loaded on a Superdex 200 PC 3.2/30 column (Pharmacia Biotech, Stockholm, Sweden) connected to a SMART System (Pharmacia Biotech, Stockholm, Sweden). The bound proteins were eluted with 25 mM Tris-HCl buffer, pH 7.5, containing 50 mM NaCl, at a flow rate of 0.1 mL min^−1. The active fractions were collected, pooled, dialyzed against 25 mM Tris-HCl pH 7.5 and stored in the same buffer supplemented with 5% glycerol. Enzyme purification was monitored using Ac-Met-7-amino-4-methylcoumarin (AMC) as substrate. Active fractions were analyzed by SDS-PAGE (12%) in order to evaluate the enrichment of the protein during the various purification steps. The protein was also characterized by Western Blot analysis. Aliquots of protein samples were subjected to SDS-PAGE (8%), and then electroblotted onto PVDF membranes (ImmobilonTM, Millipore, Milan, Italy). Membranes were next incubated with the specific primary antibody (sc-102311, 1:5000, Santa Cruz Biotechnology, USA) and then with the horseradish peroxidase-conjugated secondary antibody for 1 h at 37 °C (1:5000, Santa Cruz Biotechnology, Dallas, TX, USA). The immune complexes formed were visualized by enhanced chemiluminescence and autoradiography, according to the manufacturer’s protocol (Amersham Biosciences, Amersham, UK). Molecular mass of the native enzyme was established by gel filtration chromatography on a Superdex 200 PC 3.2/30 column (Pharmacia Biotech, Stockholm, Sweden), connected to a SMART system (Pharmacia Biotech, Stockholm, Sweden), and calibrated with BioRad gel filtration standards (BioRad, Milano, Italy; code 151-1901). The enzyme inhibition assay was performed on APEH preparation using the selective and potent inhibitor AA74-1 (SML0358, Sigma-Aldrich, Milano, Italy). Mixtures containing appropriate amount of inhibitor (62 µM) and APEH sample (0.7 μg) were pre-incubated for 30 min at 37 °C; then the substrate Ac-Met-7-amino-4-methylcoumarin (AMC) was added to the assay mixture and the enzymatic activity was followed as previously described. Control samples were prepared by pre-incubating the same amounts of APEH without the inhibitor and then assayed following the same procedure.
In total, 10 nmol/200 μL of each molecule was incubated with APEH partially purified from human blood cells (0.7 μg, 24.000 total units) at 37 °C for 48 h in Tris-HCl 25 mM pH 7.5. […]

APEH = APEH partially purified from human blood cells (0.7 μg, 24.000 total units) in Tris-HCl 25 mM pH 7.5; settings: 37 °C, up to 48 h

Compound | % intact peptide left after APEH exposure (percentage of the initial substrate) [1] [%] | cleaved bond (APEH) | % fragment cleaved on carboxy side of H59 (Ac-...HTH, lacking LVQQA), percentage of the initial substrate [1] [%] | % fragment cleaved on carboxy side of Q62 (Ac-...HTHLVQ, lacking QA), percentage of the initial substrate [1] | % fragment cleaved on carboxy side of H59 (Ac-...HTH, lacking LVQQA), percentage of the initial substrate ([1]; listed as M50F51AA) | % Degradation (overall % of peptide degraded upon exposure to APEH) [1] | % Degradation (overall % of peptide degraded upon exposure to APEH) ([1]; listed as GDF11[48-64]ox M50F51AA) [%] | % fragment cleaved on carboxy side of H59 (Ac-...HTH, lacking LVQQA), percentage of the initial substrate ([1]; listed as Y49A)
Ac-EYAFAQKYPHTHLVQQA-NH2 [GDF11[48-65] M50M52AA, control peptide where the two methionines were replaced with alanine residues] | 100 |  |  |  |  |  |  | 
Ac-EYM(ox)AM(ox)QKYPHTHLVQQA-NH2 |  | Q62-Q; also recorded: H59-L, major |  |  |  |  |  | 
Ac-EYM(ox)AAQKYPHTHLVQQA-NH2 |  | Q62-Q; also recorded: H59-L, major |  |  |  |  |  | 
CC(=O)N[C@@H](CCC(=O)O)C(=O)N[C@@H](Cc1ccc(O)cc1)C(=O)N[C@@H](C)C(=O)N[C@@H](C)C(=O)N[C@@H](CC[S+](C)[O-])C(=O)N[C@@H](CCC(N)=O)C(=O)N[C@@H](CCCCN)C(=O)N[C@@H](Cc1ccc(O)cc1)C(=O)N1CCC[C@H]1C(=O)N[C@@H](Cc1c[nH]cn1)C(=O)N[C@H](C(=O)N[C@@H](Cc1c[nH]cn1)C(=O)N[C@@H](CC(C)C)C(=O)N[C@H](C(=O)N[C@@H](CCC(N)=O)C(=O)N[C@@H](CCC(N)=O)C(=O)N[C@@H](C)C(N)=O)C(C)C)[C@@H](C)O (some centres unmarked) [GDF11[48-64] M50F51AA ox] (Ac-EYAA[Met(O)]QKYPHTHLVQQA-NH2) | 86.7 |  | 11.3 | 2.0% | about 11% | about 13% | 13.3 | 
CC(=O)N[C@@H](CCC(=O)O)C(=O)N[C@@H](C)C(=O)N[C@@H](CC[S+](C)[O-])C(=O)N[C@@H](Cc1ccccc1)C(=O)N[C@@H](CC[S+](C)[O-])C(=O)N[C@@H](CCC(N)=O)C(=O)N[C@@H](CCCCN)C(=O)N[C@@H](Cc1ccc(O)cc1)C(=O)N1CCC[C@H]1C(=O)N[C@@H](Cc1c[nH]cn1)C(=O)N[C@H](C(=O)N[C@@H](Cc1c[nH]cn1)C(=O)N[C@@H](CC(C)C)C(=O)N[C@H](C(=O)N[C@@H](CCC(N)=O)C(=O)N[C@@H](CCC(N)=O)C(=O)N[C@@H](C)C(N)=O)C(C)C)[C@@H](C)O (some centres unmarked) [GDF11[48-64] Y49A ox] (Ac-EA[Met(O)]F[Met(O)]QKYPHTHLVQQA-NH2) | 78.3 |  | 11.5 | 10.2% |  | 21.7% |  | about 11%
CC(=O)N[C@@H](CCC(=O)O)C(=O)N[C@@H](Cc1ccc(O)cc1)C(=O)N[C@@H](CC[S+](C)[O-])C(=O)N[C@@H](C)C(=O)N[C@@H](CC[S+](C)[O-])C(=O)N[C@@H](CCC(N)=O)C(=O)N[C@@H](CCCCN)C(=O)N[C@@H](Cc1ccc(O)cc1)C(=O)N1CCC[C@H]1C(=O)N[C@@H](Cc1c[nH]cn1)C(=O)N[C@H](C(=O)N[C@@H](Cc1c[nH]cn1)C(=O)N[C@@H](CC(C)C)C(=O)N[C@H](C(=O)N[C@@H](CCC(N)=O)C(=O)N[C@@H](CCC(N)=O)C(=O)N[C@@H](C)C(N)=O)C(C)C)[C@@H](C)O (some centres unmarked) [GDF11[48-64] F51A ox] (Ac-EY[Met(O)]A[Met(O)]QKYPHTHLVQQA-NH2) | 85.0 |  | 11.7 | 3.3% |  | 15.0% |  | 
CC(=O)N[C@@H](CCC(=O)O)C(=O)N[C@@H](Cc1ccc(O)cc1)C(=O)N[C@@H](CC[S+](C)[O-])C(=O)N[C@@H](Cc1ccccc1)C(=O)N[C@@H](CC[S+](C)[O-])C(=O)N[C@@H](CCC(N)=O)C(=O)N[C@@H](CCC(=O)O)C(=O)N[C@@H](Cc1ccc(O)cc1)C(=O)N1CCC[C@H]1C(=O)N[C@@H](Cc1c[nH]cn1)C(=O)N[C@H](C(=O)N[C@@H](Cc1c[nH]cn1)C(=O)N[C@@H](CC(C)C)C(=O)N[C@H](C(=O)N[C@@H](CCC(N)=O)C(=O)N[C@@H](CCC(N)=O)C(=O)N[C@@H](C)C(N)=O)C(C)C)[C@@H](C)O (some centres unmarked) [GDF11[48-64] K54E ox] (Ac-EY[Met(O)]F[Met(O)]QEYPHTHLVQQA-NH2) | 81.3 |  | 18.7 | did not undergo cleavage |  | 18.7% |  | 
CC(=O)N[C@@H](CCC(=O)O)C(=O)N[C@@H](Cc1ccc(O)cc1)C(=O)N[C@@H](CC[S+](C)[O-])C(=O)N[C@@H](C)C(=O)N[C@@H](C)C(=O)N[C@@H](CCC(N)=O)C(=O)N[C@@H](CCCCN)C(=O)N[C@@H](Cc1ccc(O)cc1)C(=O)N1CCC[C@H]1C(=O)N[C@@H](Cc1c[nH]cn1)C(=O)N[C@H](C(=O)N[C@@H](Cc1c[nH]cn1)C(=O)N[C@@H](CC(C)C)C(=O)N[C@H](C(=O)N[C@@H](CCC(N)=O)C(=O)N[C@@H](CCC(N)=O)C(=O)N[C@@H](C)C(N)=O)C(C)C)[C@@H](C)O (some centres unmarked) [GDF11[48-64] F51M52AA ox] (Ac-EY[Met(O)]AAQKYPHTHLVQQA-NH2) | 83.2 |  | 16.5 | 0.3% |  | 16.8% |  | 
